Ends that are not written are not given here.
How the values were obtained:
Format in all cases: in vivo
[1] = Rat pharmacokinetic studies: plasma concentration after subcutaneous injection with ZnCl2 (radioimmunoassay); conditions: 4 rats, 2 mg of each compound in 20 μl aqueous ZnCl2 at 1:1 molar ratio, 3 days (FIG. 7)
Experimental: Male C57BL/6 mice (Harlan) or male Wistar rats (Charles River Ltd, Margate, UK) were used for all animal experiments. The pharmacokinetics of a peptide hormone analogue of the invention in rat was evaluated over 7 days. 4 rats were injected subcutaneously with the peptide hormone analogue G2051 [SEQ ID NO 197]. Each injection was of […] total volume/rat containing 2 mg peptide and 1 zinc ion (as ZnCl2) per peptide molecule. Blood was collected at the indicated time points, and the concentration of the peptide hormone analogue was determined. Peptide levels were assessed by/using radioimmunoassay using R4 exendin-4 antibody. […] 4 rats were injected subcutaneously with the peptide hormone analogue G2051 [SEQ ID NO 197]. Each injection was of 20 μl total volume/rat containing 2 mg peptide and 1 zinc ion (as ZnCl2) per peptide molecule. Blood was collected at the indicated time points, and the concentration of the comparator compound was determined. Peptide levels were assessed by/using radioimmunoassay using R4 exendin-4 antibody.

[2] = Mice feeding studies: cumulative food intake after subcutaneous administration; conditions: mice fasted 16 h, over 48 hours
Experimental: Male C57BL/6 mice (Harlan) or male Wistar rats (Charles River Ltd, Margate, UK) were used for all animal experiments.
Mice were individually housed in IVC cages. Animals were randomised into treatment groups, with stratification by body weight. Mice were fasted overnight (16 hrs) prior to peptide or vehicle administration. All peptide solutions were prepared freshly, immediately prior to administration. The vehicle used for all studies was 5% v/v water and 95% v/v sodium chloride (0.9% w/v). Peptide and vehicle were administered by subcutaneous injection, with dosage corrected for bodyweight. The injection volume was […]. […] Food intake was measured at 24 and 48 hours post injection. All statistics are calculated using a one-way ANOVA with Dunnett's post-test or one-way ANOVA with Bonferroni post-test.
Peptide hormone analogues of the invention (G1698 [SEQ ID NO 1], 500 nmol/kg dosage, reconstituted in saline, and G1718 [SEQ ID NO 6], 200 nmol/kg dosage, reconstituted in saline), comparator compounds (G1697, 500 nmol/kg dosage, reconstituted in saline, and G1717, 200 nmol/kg dosage, reconstituted in saline), or saline (vehicle control group) were administered subcutaneously to mice (group size 4-6 animals). […] Food intake (in grams) was measured at time intervals over 48 hours.

[3] = Mice feeding studies: body weight increase over 7 days; conditions: 200 nmol/kg subcutaneous in saline, compared with comparator having only His30-His31-His32 (G1721 or G1779; FIGS. 4, 5)

Substance | initial increase or spike in plasma concentration level [1] | further results
HSQGTFTSDYSKYLDHRRAKDFVQWLMNT-NH2 [G94] | initial increase or “spike” in plasma concentration level is observed | 
HSQGTFTSDYSKYLDSKKAQEFVQWLMNT-NH2 [G200] | initial increase or “spike” in plasma concentration level is observed | 
G1698: peptide hormone analogue of the invention; C-terminal extension His30-His31-His32-His33; full sequence only in FIG. 1 (HSQGTFTSDYSKYLDERRAHEFIEWLLNGHHHH; hormone analogue) |  | reduction of cumulative food intake relative to saline control ([2]; 500 nmol/kg subcutaneous in saline, compared with comparator G1697 (FIG. 2)): more potent and more sustained reduction
HSQGTFTSDYSKYLDSKKAQEFVEWLMNT [G202] | initial increase or “spike” in plasma concentration level is observed | 
G1718: peptide hormone analogue of the invention; C-terminal extension His30-His31-His32-His33; full sequence only in FIG. 1 (HSQGTFTSDYSHYLDQRRAHEFIQWLLNGHHHH; hormone analogue) |  | reduction of cumulative food intake relative to saline control ([2]; 200 nmol/kg subcutaneous in saline, compared with comparator G1717 (FIG. 3)): more potent and more sustained reduction
G1722: peptide hormone analogue of the invention; C-terminal extension His30-His31-His32-His33; full sequence only in FIG. 1 (HSQGTFTSDYSHYLDSKRAHEFIQWLLNGHHHH; hormone analogue) |  | reduction of body weight increase relative to saline control [3]: more potent and more sustained reduction
HSQGTFTSDYSKYLDSKKAQEFVQWLLNT [G162] | initial increase or “spike” in plasma concentration level is observed | 
G1781: peptide hormone analogue of the invention; full sequence only in FIG. 1 (HSQGTFTSDYSKYLDERRAHEFIEWLLNGGHHHH; hormone analogue) |  | reduction of body weight increase relative to saline control [3]: more potent and more sustained reduction
